# pIC50: −log10 of the molar value.
# Target: 15-PGDH/HPGD (Homo sapiens (Human), UniProt P15428)
# Experiment: hPGDH inhibitor screening biochemical assay
# Settings: 10 nM 15-PGDH/HPGD, 15 μM PGE2, 0.25 mM NAD; read-out: hPGDH: Average IC50
# In short: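 10 nM recombinant 15-PGDH was preincubated with compound (10-point) for 10 min at 37° C. in 50 mM Tris-HCl pH 7.5, 0.01% Tween 20. Then 15 μM PGE2 and 0.25 mM NAD+ were added for 10 min at rt. NADH fluorescence (ex/em 340/485 nm) gave % inhibition versus 1% DMSO and a four-parameter IC50.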
# Chain of 15-PGDH/HPGD (P15428 whole entry): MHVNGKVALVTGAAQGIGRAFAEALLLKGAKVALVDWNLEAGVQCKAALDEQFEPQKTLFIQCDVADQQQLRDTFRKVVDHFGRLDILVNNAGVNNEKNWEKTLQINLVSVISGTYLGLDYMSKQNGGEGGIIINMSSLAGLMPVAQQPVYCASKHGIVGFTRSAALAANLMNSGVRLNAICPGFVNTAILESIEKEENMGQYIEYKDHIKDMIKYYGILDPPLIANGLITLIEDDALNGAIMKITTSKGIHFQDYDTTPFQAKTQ
row,SMILES,pIC50
1,"COc1cccc(-c2cn(C)c3cc(C(=O)N4CCC(F)CC4)cnc23)c1 [A-307, (4-fluoropiperidin-1-yl)(3-(3-methoxyphenyl)-1-methyl-1H-pyrrolo[3,2-b]pyridin-6-yl)methanone]",6.00 to 7.00
2,"COc1ccccc1-c1cn(C)c2cc(C(=O)N3CCC(F)CC3)cnc12 [A-308, (4-fluoropiperidin-1-yl)(3-(2-methoxyphenyl)-1-methyl-1H-pyrrolo[3,2-b]pyridin-6-yl)methanone]",≤ 6.00
3,COc1ccc(-n2c(C)nc3cc(C(=O)N4CCCCC4)ccc32)cc1 [A-310],> 7.00
4,CCC(CC)n1cnc2cc(C(=O)N3CCCCC3)ccc21 [A-311],> 7.00
5,"COc1ccc(-n2nnc3cc(C(=O)N4CCC(F)CC4)ccc32)cc1 [A-312, (4-fluoropiperidin-1-yl)(1-(4-methoxyphenyl)-1H-benzo[d][1,2,3]triazol-5-yl)methanone]",> 7.00
6,"COc1ccc(-n2nnc3cc(C(=O)N4CCCCC4)ccc32)cc1 [A-313, (1-(4-methoxyphenyl)-1H-benzo[d][1,2,3]triazol-5-yl)(piperidin-1-yl)methanone]",> 7.00
7,O=C(c1cnc2c(ccn2-c2ccc3c(c2)OC(F)(F)O3)c1)N1CCCCC1 [A-317],> 7.00
8,O=C(c1cnc2c(ccn2C2CCC(F)(F)CC2)c1)N1CCCCC1 [A-320],≤ 6.00
9,COc1ccc(-n2ccc3c(C)c(C(=O)N4CCCCC4)cnc32)cc1 [A-321],> 7.00
10,"COc1ccc(-n2ccc3c(C#N)c(C(=O)N4CCCCC4)cnc32)cc1 [A-323, 1-(4-methoxyphenyl)-5-(piperidine-1-carbonyl)-1H-pyrrolo[2,3-b]pyridine-4-carbonitrile]",> 7.00
11,"COc1ccc(-n2ccc3c(N)c(C(=O)N4CCCCC4)cnc32)cc1 [A-324, (4-amino-1-(4-methoxyphenyl)-1H-pyrrolo[2,3-b]pyridin-5-yl)(piperidin-1-yl)methanone]",> 7.00
12,O=C(c1ccc2c(cnn2-c2cncc(Cl)c2)c1)N1CCCCC1 [A-325],> 7.00
13,"COc1ccc(-n2c(CCC(C)(C)O)cc3cc(C(=O)N4CCCCC4)cnc32)cc1 [A-326, (2-(3-hydroxy-3-methylbutyl)-1-(4-methoxyphenyl)-1H-pyrrolo[2,3-b]pyridin-5-yl)(piperidin-1-yl)methanone]",> 7.00
14,CN(C)c1ccc(-n2ccc3cc(C(=O)N4CCC(F)CC4)cnc32)cc1 [A-327],> 7.00
15,"O=C(c1cnc2c(ccn2-c2cncc(-c3n[nH]c(C4CC4)n3)c2)c1)N1CCC(F)(F)CC1 [A-332, (1-(5-(5-cyclopropyl-1H-1,2,4-triazol-3-yl)pyridin-3-yl)-1H-pyrrolo[2,3-b]pyridin-5-yl)(4,4-difluoropiperidin-1-yl)methanone]",> 7.00
16,"O=C(c1cnc2c(ccn2-c2ccc(-c3n[nH]c(C4CC4)n3)nc2)c1)N1CCC(F)(F)CC1 [A-333, (1-(6-(5-cyclopropyl-1H-1,2,4-triazol-3-yl)pyridin-3-yl)-1H-pyrrolo[2,3-b]pyridin-5-yl)(4,4-difluoropiperidin-1-yl)methanone]",> 7.00
17,"O=C(c1cnc2c(ccn2-c2ccc(-c3nnc(C(F)(F)F)[nH]3)nc2)c1)N1CCC(F)(F)CC1 [A-334, (4,4-Difluoropiperidin-1-yl)(1-(6-(5-(trifluoromethyl)-4H-1,2,4-triazol-3-yl)pyridin-3-yl)-1H-pyrrolo[2,3-b]pyridin-5-yl)methanone]",> 7.00
18,"CC(C)(C)c1ccc(NC(=O)c2cncc(-n3ccc4cc(C(=O)N5CCC(F)(F)CC5)cnc43)c2)cn1 [A-335, N-(6-(tert-butyl)pyridin-3-yl)-5-(5-(4,4-difluoropiperidine-1-carbonyl)-1H-pyrrolo[2,3-b]pyridin-1-yl)nicotinamide]",> 7.00
19,"CC(C)(O)CCc1cc2cc(C(=O)N3CCC(F)(F)CC3)cnc2n1-c1ccc(C(=O)O)cc1 [A-336, 4-(5-(4,4-difluoropiperidine-1-carbonyl)-2-(3-hydroxy-3-methylbutyl)-1H-pyrrolo[2,3-b]pyridin-1-yl)benzoic acid]",> 7.00
